According to publication PMC4440778, “Structure-Activity Relationship and Mode of Action of a Frog Secreted Antibacterial Peptide B1CTcu5 Using Synthetically and Modularly Modified or Deleted (SMMD) Peptides” (PLoS ONE, 2015):
Converted amounts (≈) assume the structure as drawn. Where a SMILES comes first, the peptide text is derived from it. Bridges are numbered along the chain shown (N, C = ends).

How the values were obtained:
skin cancer cells (A431) = format: cell-based, human
Protocol: (§1) Cytotoxicity of the peptides against human embryonic kidney (HEK) cells, skin cancer cells (A431) and PBMCs were evaluated by 3-[4, 5-dimethylthiazol-2-yl]-2, 5-diphenyl tetrazolium bromide (MTT) assay. Peptide solution prepared in less than 0.2% DMSO (10–100 μg/ml) was treated with initially seeded 10,000 cells per well for HEK and A431 cells. To assess peptide cytotoxicity in PBMCs, MTT assay was performed by adding different concentrations of the respective peptides to 96 well plate containing 40,000 PBMCs per well, in triplicate. The conversion of MTT into […] was determined by measuring the absorbance at 570 nm.

P. aeruginosa ATCC 27853 = settings: ATCC 27853, 24 h
Protocol: (§2) Bacterial cultures were grown in Luria Bertani broth (Hi-media) by overnight incubation at 37°C with constant shaking. Microbial cultures having 10^6 CFU/ml were made from OD 0.6 culture. Respective peptide stock concentration (1mg/ml) were prepared in sterile water and diluted in LB broth to make concentrations ranging from 1–200 μg/ml. Bacterial culture (50 μl) was treated with 50 μl of individual peptide amide solution of various concentrations and incubated for 24 h at 37°C with constant shaking in a 96 well microtitre plate. […] The minimum inhibitory concentration (MIC) was taken as the dose at which 100% of growth inhibition was observed and was calculated from the graph. MIC was calculated from independent experiments performed in triplicate.

E. coli MG 1655 = settings: MG 1655, 24 h
Protocol: as §2

PBMCs = format: cell-based, human
Protocol: Peripheral blood mononuclear cells (PBMCs) were isolated from heparanised blood of healthy individuals. Five milliliter of blood was diluted with PBS (pH 7.4), and layered above 5 ml of histopaque and centrifuged at 1200 rpm for 30 min at room temperature. The upper layer was discarded, and the interphase containing PBMCs were carefully withdrawn and washed with PBS. It was centrifuged at 1500 rpm at room temperature for 10 min, the pellets were resuspended in RPMI medium and the cells were counted.
as §1

B. coagulans ATCC 7050 = settings: ATCC 7050, 24 h
Protocol: as §2

B. subtilis MTCC 14416 = settings: MTCC 14416, 24 h
Protocol: as §2

S. aureus ATCC 9542 = settings: ATCC 9542, 24 h
Protocol: as §2

[1] = tested on: human embryonic kidney (HEK) cells; format: cell-based
Protocol: as §1

[2] = tested on: V. cholerae (clinical isolates); settings: 24 h
Protocol: as §2

| Compound | CC 50 (skin cancer cells (A431)) | MIC (P. aeruginosa ATCC 27853) | MIC (E. coli MG 1655) | CC 50 (PBMCs) | MIC (B. coagulans ATCC 7050) | MIC (B. subtilis MTCC 14416) | MIC (S. aureus ATCC 9542) | CC 50 [1] | MIC [2] |
| --- | --- | --- | --- | --- | --- | --- | --- | --- | --- |
| CC[C@H](C)[C@@H]1NC(=O)[C@H](CCCCN)NC(=O)[C@@H](NC(=O)[C@H](CC(C)C)NC(=O)[C@@H](NC(=O)[C@H](CCC(N)=O)NC(=O)[C@@H]2CCCN2C(=O)[C@H](CC(C)C)NC(=O)[C@H](Cc2ccccc2)NC(=O)[C@H](CC(N)=O)NC(=O)[C@H](C)NC(=O)[C@H](C)NC(=O)[C@@H](N)CC(C)C)[C@@H](C)CC)CSSC[C@@H](C(N)=O)NC(=O)[C@H](CCCCN)NC(=O)[C@H](CCCNC(=N)N)NC(=O)[C@H](C)NC1=O [B1CTcu5-LIAG] (H-LAANFLPQILCKIARKC-NH2; disulfide 11-17) | >100 µg/mL | >100 µg/mL | 12.5 µg/mL (≈ 6.58 µM) | >100 µg/mL | 25 µg/mL (≈ 13.2 µM) | 50 µg/mL (≈ 26.3 µM) | 6.25 µg/mL (≈ 3.29 µM) | >100 µg/mL | 12.5 µg/mL (≈ 6.58 µM) |
| CC[C@H](C)[C@@H]1NC(=O)[C@H](CCCCN)NC(=O)[C@@H](NC(=O)[C@H](CC(C)C)NC(=O)[C@@H](NC(=O)[C@H](CCC(N)=O)NC(=O)[C@@H]2CCCN2C(=O)[C@H](CC(C)C)NC(=O)[C@H](Cc2ccccc2)NC(=O)[C@H](CC(N)=O)NC(=O)[C@H](C)NC(=O)[C@H](C)NC(=O)[C@H](CC(C)C)NC(=O)CNC(=O)[C@H](C)NC(=O)[C@@H](NC(=O)[C@@H](N)Cc2c[nH]cn2)[C@@H](C)CC)[C@@H](C)CC)CSSC[C@@H](C(N)=O)NC(=O)[C@H](CCCCN)NC(=O)[C@H](CCCNC(=N)N)NC(=O)[C@H](C)NC1=O [B1CTcu5H] (H-HIAGLAANFLPQILCKIARKC-NH2; disulfide 15-21) | >100 µg/mL | >100 µg/mL | 50 µg/mL (≈ 22 µM) | 90 ± 2.56 µg/mL (≈ 39.5 µM) | 25 µg/mL (≈ 11 µM) | 50 µg/mL (≈ 22 µM) | >100 µg/mL | >100 µg/mL | 25 µg/mL (≈ 11 µM) |
| CC[C@H](C)[C@@H]1NC(=O)[C@H](CCCCN)NC(=O)[C@@H](NC(=O)[C@H](CC(C)C)NC(=O)[C@@H](NC(=O)[C@H](CCC(N)=O)NC(=O)[C@@H]2CCCN2C(=O)[C@H](CC(C)C)NC(=O)[C@H](Cc2ccccc2)NC(=O)[C@H](CC(N)=O)NC(=O)[C@H](C)NC(=O)[C@H](C)NC(=O)[C@H](CC(C)C)NC(=O)CNC(=O)[C@H](C)NC(=O)[C@@H](NC(=O)[C@@H](N)CC(C)C)[C@@H](C)CC)[C@@H](C)CC)CSSC[C@@H](C(N)=O)NC(=O)[C@H](CCCCN)NC(=O)[C@H](CCCNC(=N)N)NC(=O)[C@H](C)NC1=O [Cyclic B1CTcu5] (H-LIAGLAANFLPQILCKIARKC-NH2; disulfide 15-21) | >100 µg/mL | >100 µg/mL | 25 µg/mL (≈ 11.1 µM) | 75.1 ± 1.46 µg/mL (≈ 33.3 µM) | 15 µg/mL (≈ 6.66 µM) | 50 µg/mL (≈ 22.2 µM) | >100 µg/mL | >100 µg/mL | 25 µg/mL (≈ 11.1 µM) |
